For data set [1], the target named is T1, HCV polymerase (NS5B570n-Con1) (Hepatitis C virus genotype 1b, UniProt Q9WMX2).
T1 construct: contains a 21 amino acid deletion at the C-terminus relative to the full-length HCV polymerase; 6-histidine (N); made in house; host or cells: E. coli BL21(DE) pLysS, plasmid pET 17b
Put plainly: HCV NS5B RNA Polymerase Activity. The data set is classed as biochemical, HCV Con1 strain. Here is the method:
The enzymatic activity of HCV polymerase (NS5B570n-Con1) was measured as the incorporation of radiolabeled nucleotide monophosphates into acid insoluble RNA products. Unincorporated radiolabeled substrate was removed by filtration and scintillant was added to the washed and dried filter plate containing radiolabeled RNA product. The amount of RNA product generated by NS5B570-Con1 at the end of the reaction was directly proportional to the amount of light emitted by the scintillant.
The N-terminal 6-histidine tagged HCV polymerase, derived from HCV Con1 strain, genotype 1b (NS5B570n-Con1) contains a 21 amino acid deletion at the C-terminus relative to the full-length HCV polymerase and was purified from E. coli strain BL21(DE) pLysS. The construct, containing the coding sequence of HCV NS5B Con1 (GenBank accession number AJ242654) was inserted into the plasmid construct pET 17b, downstream of a T7 promoter expression cassette and transformed into E. coli. A single colony was grown overnight as a starter culture and later used inoculate 10 L of LB media supplemented with 100 μg/mL ampicillin at 37° C. Protein expression was induced by the addition of 0.25 mM isopropyl-β-D-thiogalactopyranoside (IPTG) when optical density at […] of the culture was between 0.6 and 0.8 and cells were harvested after 16 to 18 h at 30° C. NS5B570n-Con1 was purified to homogeneity using a three-step protocol including subsequent column chromatography on Ni-NTA, SP-Sepharose HP and Superdex 75 resins.
Each 50 μL enzymatic reaction contained 20 nM RNA template derived from the complementary sequence of the Internal Ribosome Entry Site (cIRES), 20 nM NS5B570n-Con1 enzyme, 0.5 μCi of tritiated UTP (Perkin Elmer catalog no. TRK-412; specific activity: 30 to 60 Ci/mmol; stock solution concentration from 7.5×10^−5 M to 20.6×10^−6 M), 1 μM each ATP, CTP, and GTP, 40 mM Tris-HCl pH 8.0, 40 mM NaCl, 4 mM DTT (dithiothreitol), 4 mM MgCl2, and 5 μl of compound serial diluted in DMSO. Reaction mixtures were assembled in 96-well filter plates (cat #MADVN0B, Millipore Co.) and incubated for 2 h at 30° C. Reactions were stopped by addition of 10% final (v/v) trichloroacetic acid and incubated for 40 min at 4° C. Reactions were filtered, washed with 8 reaction volumes of 10% (v/v) trichloroacetic acetic acid, 4 reaction volumes of 70% (v/v) ethanol, air dried, and 25 μl of scintillant (Microscint 20, Perkin-Elmer) was added to each reaction well.
The amount of light emitted from the scintillant was converted to counts per minute (CPM) on a Topcount® plate reader (Perkin-Elmer, Energy Range: Low, Efficiency Mode Normal, Count Time: 1 min, Background Subtract: none, Cross talk reduction: Off).
Data was analyzed in Excel® (Microsoft) and ActivityBase® (Idbs®). The reaction in the absence of enzyme was used to determine the background signal, which was subtracted from the enzymatic reactions. Positive control reactions were performed in the absence of compound, from which the background corrected activity was set as 100% polymerase activity. All data was expressed as a percentage of the positive control. The compound concentration at which the enzyme-catalyzed rate of RNA synthesis was reduced by 50% (IC50) was calculated by fitting equation (i) to the data where“Y”
[formula] corresponds to the relative enzyme activity (in %), “% Min” is the residual relative activity at saturating compound concentration, “% Max” is the relative maximum enzymatic activity, “X” corresponds to the compound concentration, and “S” is the Hill coefficient (or slope).

Data set [2] can be described thus: in vitro. As to conditions: human.
The test system of data set [3] is HCV replicon cells (2209-23), genotype 1b replicon. Briefly: HCV Replicon Assay (Renilla luciferase reporter). Type of data set: cell-based, HCV genotype 1b. As to conditions: Hepatitis C virus, 72 h; cell line 2209-23, luciferase activity after three days.
Data set [4] relates to HCV. To be noted: cited from earlier work.

Here are results for 14 compounds from patent publication US8487103B2 (Roche Palo Alto LLC, priority 2009, dated 2013).

Structures are written as SMILES.

Regarding `COc1nc2c(-c3ccc[nH]c3=O)cc(C(C)(C)C)cc2cc1-c1ccc(NS(C)(=O)=O)cc1` [Compound I-1, N-{4-[6-tert-Butyl-2-methoxy-8-(2-oxo-1,2-dihydro-pyridin-3-yl)-quinolin-3-yl]-phenyl}-methanesulfonamide], the melting point fell in the range of 274 to 276 °C. In addition, in data set [1], it took 8 nM to reach half-maximal inhibition (IC50).

Take `CC(C)(C)c1cc(-c2cc(F)c[nH]c2=O)c2ncc(-c3ccc(NS(C)(=O)=O)cc3)nc2c1` [Compound I-2, N-{4-[7-tert-Butyl-5-(5-fluoro-2-oxo-1,2-dihydro-pyridin-3-yl)-quinoxalin-2-yl]-phenyl}-methanesulfonamide]: the melting point is > 300 °C. Also, the IC50 in data set [1] was determined as 31 nM.

The compound `CC(C)(C)c1cc(-c2cc(F)c[nH]c2=O)c2ncc(N3CC[C@H](CNS(C)(=O)=O)C3)nc2c1` [Compound I-4, N-{(S)-1-[7-tert-Butyl-5-(5-fluoro-2-oxo-1,2-dihydro-pyridin-3-yl)-quinoxalin-2-yl]-pyrrolidin-3-ylmethyl}-methanesulfonamide] registered a melting point of 170 to 175 °C. For the same compound, half-maximal inhibition in data set [1] (IC50) required 191 nM.

`CC(C)(C)c1cc(-c2cc(F)c[nH]c2=O)c2ncc(N3CCC(NS(C)(=O)=O)CC3)nc2c1` [Compound I-5] returned a melting point of 224 to 226 °C. In data set [1], the IC50 came to 817 nM.

On to `CC(C)(C)c1cc(-c2ccc[nH]c2=O)c2ncc(-c3ccc(NS(C)(=O)=O)cc3)nc2c1` [Compound I-6, N-{4-[7-tert-Butyl-5-(2-oxo-1,2-dihydro-pyridin-3-yl)-quinoxalin-2-yl]-phenyl}-methanesulfonamide], for which the melting point lay in the range of 260 to 263 °C. Further, the IC50 in data set [1] was found to be 1 nM.

For the compound `CC(C)(C)c1cc(-c2ccc[nH]c2=O)c2ncc(-c3ccc(NS(C)(=O)=O)cc3Cl)nc2c1` [Compound I-7], the melting point was 275 to 278 °C. For the same compound, in data set [1], inhibition was half-maximal at 3 nM (IC50).

For the compound `CC(C)(C)c1cc(-c2cc(F)c[nH]c2=O)c2ncc(N3CCC(NS(C)(=O)=O)CC3)cc2c1` [Compound I-13, N-{1-[6-tert-Butyl-8-(5-fluoro-2-oxo-1,2-dihydro-pyridin-3-yl)-quinolin-3-yl]-piperidin-4-yl}-methanesulfonamide], the melting point was in the range of 186 to 188 °C. Besides, the IC50 in data set [1] was 64 nM.

As for `COc1c(C(C)(C)C)cc(-c2ccc[nH]c2=O)c2ncc(N3CC[C@H](CNS(C)(=O)=O)C3)cc12` [Compound I-18, N-{(S)-1-[6-tert-Butyl-5-methoxy-8-(2-oxo-1,2-dihydro-pyridin-3-yl)-quinolin-3-yl]-pyrrolidin-3-ylmethyl}-methanesulfonamide], the melting point was 275 to 280 °C. The same compound returned a CC50 at 3 days in data set [2] of 30300 nM. The IC50 in data set [1] was found to be 0.2 nM. In data set [3], this compound yielded an IC50 of 5.2 nM.

For the compound `COc1c(C(C)(C)C)cc(-c2ccc[nH]c2=O)c2ncc(N3CC(CNS(C)(=O)=O)C3)cc12` [Compound I-19, N-{1-[6-tert-Butyl-5-methoxy-8-(2-oxo-1,2-dihydro-pyridin-3-yl)-quinolin-3-yl]-azetidin-3-ylmethyl}-methanesulfonamide], the melting point was in the range of 177 to 180 °C. The IC50 in data set [1] stood at 3 nM.

Compound `COc1c(C(C)(C)C)cc(-n2ccc(=O)[nH]c2=O)c2ncc(-c3ccc(NS(C)(=O)=O)cc3)cc12` [Compound I-21, N-{4-[6-tert-Butyl-8-(2,4-dioxo-3,4-dihydro-2H-pyrimidin-1-yl)-5-methoxy-quinolin-3-yl]-phenyl}-methanesulfonamide] registered a melting point of 277 to 281 °C. The IC50 in data set [1] came to 2.2 nM. This compound also returned an IC50 in data set [3] of 0.3 nM.

Consider `COc1c(C(C)(C)C)cc(-c2ccc(CO)[nH]c2=O)c2ncc(-c3ccc(NS(C)(=O)=O)cc3)cc12` [Compound I-41, N-{4-[6-tert-Butyl-8-(6-hydroxymethyl-2-oxo-1,2-dihydro-pyridin-3-yl)-5-methoxy-quinolin-3-yl]-phenyl}-methanesulfonamide], for which the melting point lay in the range of 293 to 295 °C. In data set [1], this compound returned an IC50 of 0.2 nM.

Take `Cc1ccc(-c2nc(C(C)(C)C)cc3cc(-c4ccc(NS(C)(=O)=O)cc4)ccc23)c(=O)[nH]1` [Compound I-48, N-{4-[3-tert-Butyl-1-(6-methyl-2-oxo-1,2-dihydro-pyridin-3-yl)-isoquinolin-6-yl]-phenyl}-methanesulfonamide]: the IC50 in data set [3] came to 27.4 nM.

Take `COc1ccc(-c2cc(C(C)(C)C)cc3cc(N4CC[C@H](CNS(C)(=O)=O)C4)cnc23)c(=O)[nH]1` [Compound I-60, N-{(S)-1-[6-tert-Butyl-8-(6-methoxy-2-oxo-1,2-dihydro-pyridin-3-yl)-quinolin-3-yl]-pyrrolidin-3-ylmethyl}-methanesulfonamide]: the midpoint of inhibition in data set [3], the IC50, lay at 81.8 nM.

For the compound `NC(=O)c1ncn([C@@H]2O[C@H](CO)[C@@H](O)[C@H]2O)n1` [ribavirin, 1-((2R,3R,4S,5R)-3,4-Dihydroxy-5-hydroxymethyl-tetrahydro-furan-2-yl)-1H-[1,2,4]triazole-3-carboxylic acid amide], in data set [4] (monotherapy), the “serum amino transferase levels reduced to normal, share of patients” value is 40%. Further, the “effect on serum HCV-RNA” value in data set [4] (sole treatment / monotherapy) was “does not lower serum levels of HCV-RNA”.
